What all share (assay type): toxicity, cell-based
One data set has as its system HEK-293T. Kind of data set: Incucyte cell viability with HEK293T. The conditions noted are these: human, 10 µM, compound concentration 10 uM.
For the next data set, the system named is Fibroblast. Kind of data set: Incucyte cell viability with human fibroblast. The conditions noted are these: 10 µM, compound concentration 10 uM.
The next data set deals with U2OS. Kind of data set: Incucyte cell viability with U2OS. Conditions: human, 10 µM, compound concentration 10 uM.
The mark [1] stands for this setting: 0 h, replicate number 2, timepoint 0 hours.
Where [2] appears, read: 6 h, replicate number 1, timepoint 6 hours.
Setting [3] is: 6 h, replicate number 2, timepoint 6 hours.
Setting [4] is: 12 h, replicate number 1, timepoint 12 hours.
Setting [5] is: 12 h, replicate number 2, timepoint 12 hours.
The mark [6] stands for this setting: 18 h, replicate number 1, timepoint 18 hours.
[7] abbreviates: 18 h, replicate number 2, timepoint 18 hours.
[8] abbreviates: 24 h, replicate number 1, timepoint 24 hours.
[9] abbreviates: 24 h, replicate number 2, timepoint 24 hours.
The mark [10] stands for this setting: 0 h, replicate number 1, timepoint 0 hours.

The text below walks through data of ChEMBL document CHEMBL5058564, “EUbOPEN Chemogenomics Library 2 (Incucyte)” (2022).

The structures appear in SMILES notation. Where a SMILES comes first, the peptide text is derived from it. Bridges are numbered along the chain shown (N, C = ends). [ ]: non-standard residue; d: D form. Orn = NCCC[C@H](N)C(=O)O; Mpa = O=C(O)CCS
Note: unitless GR value; below 1 slowed growth and below 0 cell loss.

Consider `COc1ccc(NC(=O)c2ccc(-c3ccc(-c4noc(C)n4)cc3C)cc2)cc1OCCN(C)C.Cl`, for which the “Growth Rate” value is given as -0.89 in the data set with HEK-293T (setting [1]); -0.88 in the data set on HEK-293T (setting [2]); -0.73 in the data set on HEK-293T (setting [3]); -0.65 in the data set with HEK-293T (setting [4]); -0.38 in the data set on HEK-293T (setting [5]); -0.53 in the data set on HEK-293T (setting [6]). For the same molecule, the “Growth Rate” value is on record as -0.31 in the data set with HEK-293T (setting [7]); -0.45 in the data set on HEK-293T (setting [8]); -0.35 in the data set on HEK-293T (setting [9]); -0.36 in the data set with Fibroblast (setting [2]); -0.28 in the data set with Fibroblast (setting [3]); -0.41 in the data set on Fibroblast (setting [4]). Besides, the “Growth Rate” value in the data set on Fibroblast (setting [5]) is -0.33; in the data set with Fibroblast (setting [6]), -0.47; with Fibroblast (setting [7]) it was -0.48; in the data set with Fibroblast (setting [8]), -0.57; with Fibroblast (setting [9]), -0.52; with U2OS (setting [10]), -0.87. Further, the “Growth Rate” value in the data set on U2OS (setting [1]) is on record as -1; with U2OS (setting [2]) it was -0.71; in the data set on U2OS (setting [4]), -0.36; with U2OS (setting [5]) it was 0.51; with U2OS (setting [6]), -0.17; in the data set with U2OS (setting [7]) it was 0.28. Besides, the entries for the “Growth Rate” value in the data set on U2OS (setting [8]) and in the data set with U2OS (setting [9]) were -0.18 and 0.14, respectively.
On to `CC(C)[C@H](C(=O)Nc1ccc(C(=O)NO)cc1)c1ccccc1` [AR-42], for which the “Growth Rate” value in the data set on HEK-293T (setting [10]) was 0.33; in the data set on HEK-293T (setting [1]) it was 0; in the data set on HEK-293T (setting [4]), 0.65; in the data set with HEK-293T (setting [5]), 0.04; in the data set on HEK-293T (setting [6]), 0.28; with HEK-293T (setting [8]), 0.18. The “Growth Rate” value with HEK-293T (setting [9]) is recorded as 0.23; in the data set with Fibroblast (setting [10]) it was 0.24; in the data set on Fibroblast (setting [1]) it was 0; with U2OS (setting [10]), -0.37; in the data set on U2OS (setting [1]), 0.37; in the data set on U2OS (setting [2]) it was 0.34. The “Growth Rate” value in the data set with U2OS (setting [3]) is recorded as 0.99; in the data set with U2OS (setting [4]), 0.5; with U2OS (setting [5]), 0.71; with U2OS (setting [6]) it was 0.3; in the data set on U2OS (setting [7]), 0.56; in the data set on U2OS (setting [8]), 0.39. Also, the “Growth Rate” value in the data set on U2OS (setting [9]) is on record as 0.42.
Consider `C[C@H]1[C@H]2CC[C@H]3[C@@H]4CC=C5C[C@@H](N(C)C)CC[C@]5(C)[C@H]4CC[C@]23CN1C` [CONESSINE], for which the “Growth Rate” value in the data set with HEK-293T (setting [1]) is on record as 0.74; in the data set on HEK-293T (setting [2]), 0.67; with HEK-293T (setting [4]), 0.85; in the data set with HEK-293T (setting [6]) it was 0.82; with HEK-293T (setting [8]), 0.91; with Fibroblast (setting [1]), 0.49. Moreover, the “Growth Rate” value was determined as 0.11 in the data set on Fibroblast (setting [2]); 0.18 in the data set with Fibroblast (setting [4]); 0.35 in the data set on Fibroblast (setting [6]); 0.52 in the data set with Fibroblast (setting [8]); 0.8 with U2OS (setting [3]); 0.89 in the data set with U2OS (setting [5]).
Turning to `CCOc1ccc(C[C@H]2NC(=O)CCSSC[C@@H](C(=O)N3CCC[C@H]3C(=O)N[C@@H](CCCN)C(=O)NCC(N)=O)NC(=O)[C@H](CC(N)=O)NC(=O)[C@H]([C@@H](C)O)NC(=O)[C@H]([C@@H](C)CC)NC2=O)cc1` [ATOSIBAN] ([Mpa][dY](Et)ITNCP[Orn]G-NH2; disulfide 1-6), the “Growth Rate” value in the data set on HEK-293T (setting [10]) was 0.87; with HEK-293T (setting [3]) it was 0.92; with HEK-293T (setting [5]) it was 0.83; in the data set on HEK-293T (setting [7]), 0.78; in the data set on HEK-293T (setting [9]), 0.7; in the data set with Fibroblast (setting [10]), 0.49. For the same molecule, the “Growth Rate” value in the data set with Fibroblast (setting [1]) is 0.42; with Fibroblast (setting [3]) it was 0.56; in the data set with Fibroblast (setting [4]), 0.64; in the data set with Fibroblast (setting [5]), 0.4; with U2OS (setting [1]), -1; in the data set on U2OS (setting [3]), 0.76. The “Growth Rate” value amounted to 0.97 in the data set with U2OS (setting [5]), 0.79 in the data set on U2OS (setting [6]) and 0.89 in the data set on U2OS (setting [7]).
For the molecule `Cc1ccc(OCC(O)C(C)NC(C)C)c2c1CCC2.Cl` (stereo not given), the “Growth Rate” value in the data set on HEK-293T (setting [1]) was 0.95; in the data set on HEK-293T (setting [3]) it was 0.7; in the data set on HEK-293T (setting [4]), 0.49; with HEK-293T (setting [5]), 0.63; in the data set on HEK-293T (setting [6]), 0.16; in the data set with HEK-293T (setting [7]), 0.65. Further, the “Growth Rate” value is on record as 0.03 in the data set with HEK-293T (setting [8]); 0.62 in the data set on HEK-293T (setting [9]); 0.41 in the data set with Fibroblast (setting [10]); 0.52 in the data set on Fibroblast (setting [1]); 0.19 in the data set with Fibroblast (setting [3]); 0.74 in the data set with Fibroblast (setting [4]). Moreover, the “Growth Rate” value came out at 0.32 in the data set on Fibroblast (setting [5]); 0.5 in the data set with Fibroblast (setting [6]); 0.54 in the data set with Fibroblast (setting [7]); 0.38 with Fibroblast (setting [8]); 0.51 with Fibroblast (setting [9]); 0.09 in the data set on U2OS (setting [10]). In addition, the “Growth Rate” value is recorded as 0.28 with U2OS (setting [1]); 1 with U2OS (setting [2]); 0.87 with U2OS (setting [3]); 0.83 in the data set on U2OS (setting [4]); 0.98 in the data set with U2OS (setting [6]).
